Measured values: patent US20250092065A1, “2-(INDAZOL-5-YL)-6-(PIPERIDIN-4-YL)-1,7-NAPHTHYRIDINE DERIVATIVES AND RELATED COMPOUNDS AS MODULATORS FOR SPLICING NUCLEIC ACIDS AND FOR THE TREATMENT OF PROLIFERATIVE DISEASES” (REMIX THERAPEUTICS INC., priority 2022, published 2025)
pIC50: −log10 of the molar value.

Key:
Target C = experiment: RT-qPCR canonical junction panel assay, Target C mRNA; format: cell-based; settings: Table 4, read-out: Target C IC50 (decrease in CJ mRNA levels)
How it was run: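 IC50 is the concentration giving 50% CJ decrease, from a 4-parameter logistic fit of percent response; response derived from ΔΔCt against housekeeper and DMSO over a fixed ΔCt window, with canonical exon-junction qPCR in compound-treated K562 or A673 cells.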

SMN2 mRNA = experiment: RT-qPCR splicing assay, SMN2 mRNA; format: cell-based, human; settings: Homo sapiens, canonical junction qPCR panel, Table 4; read-out: SMN2 IC50 (decrease in CJ mRNA levels)
How it was run: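 Both isoforms, CJ and AJ, read by qPCR from crude lysates of treated A673 or K562 cells; 24 h, 37 °C, maximum 10 uM. Normalization: housekeeper ΔCt, then DMSO ΔΔCt.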

For `Cn1cc2cc(-c3ccc4nc([C@@H]5CCNC6(CC6)C5)ccc4n3)c(O)cc2n1` (single isomer, unassigned) [Compound 495], the pIC50 (Target C) was 6.00 to 7.00 and the pIC50 (SMN2 mRNA) was greater than 7.00.

Compound `Cn1cc2cc(-c3ccc4nc([C@H]5CCNC6(CC6)C5)ccc4n3)c(O)cc2n1` (single isomer, unassigned) [Compound 496] has a pIC50 (Target C) of 6.00 to 7.00 and a pIC50 (SMN2 mRNA) greater than 7.00.

Work on `Cc1nc2cc(O)c(-c3ccc4nc([C@H]5CCNC6(CC6)C5)ccc4n3)cc2o1` (single isomer, unassigned) [Compound 497] yielded a pIC50 (Target C) greater than 7.00 and a pIC50 (SMN2 mRNA) greater than 7.00.

In the case of `Cc1nc2cc(O)c(-c3ccc4nc([C@@H]5CCNC6(CC6)C5)ccc4n3)cc2o1` (single isomer, unassigned) [Compound 498], the pIC50 (Target C) was 6.00 to 7.00 and the pIC50 (SMN2 mRNA) was greater than 7.00.

Compound `CN[C@@H]1CCN(c2ccc3nc(-c4cn5cc(C)nc5c(C)c4O)ncc3n2)C1` (single isomer, unassigned) [Compound 504] has a pIC50 (Target C) of 6.00 to 7.00 and a pIC50 (SMN2 mRNA) greater than 7.00.

With `CNC(=O)c1nc(-c2cc3cn(C)nc3c(C)c2O)nc2ccc(N3CCN[C@@H](C)C3)cc12` (single isomer, unassigned) [Compound 512] the pIC50 (Target C) was 5.00 to 6.00 and the pIC50 (SMN2 mRNA) was greater than 7.00.

In the case of `CN[C@@H]1CCN(c2ccc3nc(-c4cc5cn(C)nc5c(C)c4O)ncc3c2)C1` (single isomer, unassigned) [Compound 521], the pIC50 (Target C) was 6.00 to 7.00 and the pIC50 (SMN2 mRNA) was greater than 7.00.

For `CNC(=O)c1nc(-c2cc3cn(C)nc3c(C)c2O)nc2ccc(N3C[C@@H](C)N[C@H](C)C3)cc12` (single isomer, unassigned) [Compound 653], the pIC50 (Target C) was 6.00 to 7.00 and the pIC50 (SMN2 mRNA) was greater than 7.00.

Work on `Cc1c(O)c(-c2ncc3cc(N4C[C@@H](C)N[C@H](C)C4)ccc3n2)cc2cn(C)nc12` (single isomer, unassigned) [Compound 661] yielded a pIC50 (Target C) of 6.00 to 7.00 and a pIC50 (SMN2 mRNA) greater than 7.00.

For `CNC(=O)c1nc(-c2cc3cn(C)nc3c(F)c2O)nc2ccc(N3C[C@@H](C)N[C@H](C)C3)cc12` (single isomer, unassigned) [Compound 668], the pIC50 (Target C) was 5.00 to 6.00 and the pIC50 (SMN2 mRNA) was greater than 7.00.

`CNC(=O)c1nc(-c2cc3cn(C)nc3c(F)c2O)nc2ccc(N3C[C@H](C)N[C@@H](C)C3)cc12` (single isomer, unassigned) [Compound 669] showed a pIC50 (Target C) of 5.00 to 6.00 and a pIC50 (SMN2 mRNA) greater than 7.00.

`CNC(=O)c1nc(-c2cc3cn(C)nc3cc2O)nc2ccc(N3C[C@H](C)N[C@@H](C)C3)cc12` (single isomer, unassigned) [Compound 676] showed a pIC50 (Target C) of less than 5.00 and a pIC50 (SMN2 mRNA) greater than 7.00.

For `CNC(=O)c1nc(-c2cc3cn(C)nc3cc2O)nc2ccc(N3C[C@@H](C)N[C@H](C)C3)cc12` (single isomer, unassigned) [Compound 677], the pIC50 (Target C) was 5.00 to 6.00 and the pIC50 (SMN2 mRNA) was greater than 7.00.

`Cc1cn2cc(-c3ccc4cc(N5C[C@H](C)N[C@@H](C)C5)cc(F)c4n3)cc(F)c2n1` (single isomer, unassigned) [Compound 705, 2,2,2-trifluoroacetate] was tested, and the pIC50 (Target C) was 6.00 to 7.00.

Work on `Cn1cc2cc(-c3ncc4nc(C5CCNCC5)ccc4n3)c(O)c(F)c2n1` [Compound 155] yielded a pIC50 (Target C) of 6.00 to 7.00 and a pIC50 (SMN2 mRNA) greater than 7.00.

For `Cc1nc2cc(O)c(-c3ccc4nc(N5CCNC(C(C)(C)C)C5)ccc4n3)cc2o1` (stereo not drawn) [Compound 492], the pIC50 (Target C) was 5.00 to 6.00 and the pIC50 (SMN2 mRNA) was greater than 7.00.

`Cc1nc2cc(O)c(-c3ccc4nc(N5CC[C@@H](N(C)C(C)(C)C)C5)ccc4n3)cc2o1` [Compound 493] was tested, and the pIC50 (Target C) was greater than 7.00 and the pIC50 (SMN2 mRNA) was greater than 7.00.

`Cc1c(O)c(-c2nc(C(=O)N(C)C)c3cc(N4CCNCC4)ccc3n2)cc2cn(C)nc12` [Compound 502, 2-(6-hydroxy-2,7-dimethylindazol-5-yl)-N,N-dimethyl-6-(piperazin-1-yl)quinazoline-4-carboxamide] was tested, and the pIC50 (Target C) was 5.00 to 6.00 and the pIC50 (SMN2 mRNA) was 6.00 to 7.00.

`CCNC(=O)c1nc(-c2cc3cn(C)nc3c(C)c2O)nc2ccc(N3CCNCC3)cc12` [Compound 503, N-ethyl-2-(6-hydroxy-2,7-dimethylindazol-5-yl)-6-(piperazin-1-yl)quinazoline-4-carboxamide] showed a pIC50 (Target C) of 6.00 to 7.00 and a pIC50 (SMN2 mRNA) greater than 7.00.

For `CNC(=O)c1nc(-c2cc(F)c3nc(C)cn3c2)nc2ccc(N3CCNCC3)cc12` [Compound 505, 2-{8-fluoro-2-methylimidazo[1,2-a]pyridin-6-yl}-N-methyl-6-(piperazin-1-yl) quinazoline-4-carboxamide], the pIC50 (Target C) was 6.00 to 7.00 and the pIC50 (SMN2 mRNA) was greater than 7.00.

In the case of `CNC(=O)c1nc(-c2cc3cn(C)nc3c(F)c2O)nc2ccc(N3CCNCC3)cc12` [Compound 506, 2-(7-fluoro-6-hydroxy-2-methylindazol-5-yl)-N-methyl-6-(piperazin-1-yl)quinazoline-4-carboxamide], the pIC50 (Target C) was 6.00 to 7.00 and the pIC50 (SMN2 mRNA) was greater than 7.00.

With `CNC(=O)c1nc(-c2cc3cn(C)nc3c(C)c2O)nc2ccc(N3CCC(N(C)C)CC3)cc12` [Compound 507, 6-[4-(dimethylamino)piperidin-1-yl]-2-(6-hydroxy-2,7-dimethylindazol-5-yl)-N-methylquinazoline-4-carboxamide] the pIC50 (Target C) was 5.00 to 6.00 and the pIC50 (SMN2 mRNA) was greater than 7.00.

`CNc1nc(-c2cc3cn(C)nc3c(C)c2O)nc2ccc(N3CCNCC3)cc12` [Compound 508, 2,7-dimethyl-5-[4-(methylamino)-6-(piperazin-1-yl)quinazolin-2-yl]indazol-6-ol] was tested, and the pIC50 (Target C) was less than 5.00 and the pIC50 (SMN2 mRNA) was 6.00 to 7.00.

For `Cc1c(O)c(-c2nc(N(C)C)c3cc(N4CCNCC4)ccc3n2)cc2cn(C)nc12` [Compound 509, 5-[4-(dimethylamino)-6-(piperazin-1-yl)quinazolin-2-yl]-2,7-dimethylindazol-6-ol], the pIC50 (Target C) was less than 5.00 and the pIC50 (SMN2 mRNA) was 6.00 to 7.00.

With `CNC(=O)c1nc(-c2cc3cn(C)nc3c(C)c2O)nc2ccc(N3CCC(NC)C3)cc12` (stereo not drawn) [Compound 510, 2-(6-hydroxy-2,7-dimethylindazol-5-yl)-N-methyl-6-[3-(methylamino)pyrrolidin-1-yl]quinazoline-4-carboxamide] the pIC50 (Target C) was 6.00 to 7.00 and the pIC50 (SMN2 mRNA) was greater than 7.00.

`CNC(=O)c1nc(-c2cc3cn(C)nc3c(C)c2O)nc2ccc(N3C[C@@H](C)N[C@@H](C)C3)cc12` [Compound 511, 6-[(3R,5S)-3,5-dimethylpiperazin-1-yl]-2-(6-hydroxy-2,7-dimethylindazol-5-yl)-N-methylquinazoline-4-carboxamide] showed a pIC50 (Target C) of 5.00 to 6.00 and a pIC50 (SMN2 mRNA) greater than 7.00.

`CC(=O)c1nc(-c2cc3cn(C)nc3c(F)c2O)nc2ccc(N3CCNCC3)cc12` [Compound 513, 1-(2-(7-fluoro-6-hydroxy-2-methyl-2H-indazol-5-yl)-6-(piperazin-1-yl)quinazolin-4-yl)ethan-1-one 2,2,2-trifluoroacetate] was tested, and the pIC50 (Target C) was 5.00 to 6.00 and the pIC50 (SMN2 mRNA) was greater than 7.00.

With `Cn1cc2cc(-c3nc(C#N)c4cc(N5CCNCC5)ccc4n3)c(O)c(F)c2n1` [Compound 514, 2-(7-fluoro-6-hydroxy-2-methylindazol-5-yl)-6-(piperazin-1-yl) quinazoline-4-carbonitrile; trifluoroacetic acid] the pIC50 (Target C) was 5.00 to 6.00 and the pIC50 (SMN2 mRNA) was greater than 7.00.

`Cc1c(O)c(-c2ccc3cc(N4CCNCC4)cc(F)c3n2)cc2cn(C)nc12` [Compound 515, 5-[8-fluoro-6-(piperazin-1-yl)quinolin-2-yl]-2,7-dimethylindazol-6-ol] showed a pIC50 (Target C) of 6.00 to 7.00 and a pIC50 (SMN2 mRNA) greater than 7.00.

`Cn1cc2cc(-c3ccc4cc(N5CCNCC5)cc(F)c4n3)cc(F)c2n1` [Compound 516, 8-fluoro-2-(7-fluoro-2-methylindazol-5-yl)-6-(piperazin-1-yl)quinoline] gave a pIC50 (Target C) of 6.00 to 7.00 and a pIC50 (SMN2 mRNA) greater than 7.00.

`Cc1cn2cc(-c3ccc4cc(N5CCNCC5)cc(F)c4n3)cc(F)c2n1` [Compound 517, 8-fluoro-2-{8-fluoro-2-methylimidazo[1,2-a]pyridin-6-yl}-6-(piperazin-1-yl)quinoline] gave a pIC50 (Target C) of 6.00 to 7.00 and a pIC50 (SMN2 mRNA) greater than 7.00.

Work on `Cn1cc2cc(-c3nc(C4CC4)c4cc(N5CCNCC5)ccc4n3)c(O)c(F)c2n1` [Compound 518, 5-[4-cyclopropyl-6-(piperazin-1-yl)quinazolin-2-yl]-7-fluoro-2-methylindazol-6-ol; trifluoroacetic acid] yielded a pIC50 (Target C) of less than 5.00 and a pIC50 (SMN2 mRNA) greater than 7.00.

For `Cc1c(O)c(-c2nc(-c3cncs3)c3cc(N4CCNCC4)ccc3n2)cc2cn(C)nc12` [Compound 519, 2,7-dimethyl-5-[6-(piperazin-1-yl)-4-(1,3-thiazol-5-yl)quinazolin-2-yl]indazol-6-ol], the pIC50 (Target C) was less than 5.00 and the pIC50 (SMN2 mRNA) was greater than 7.00.

With `Cc1c(O)c(-c2ncc3cc(N4CCNCC4)ccc3n2)cc2cn(C)nc12` [Compound 520, 2,7-dimethyl-5-[6-(piperazin-1-yl)quinazolin-2-yl]indazol-6-ol] the pIC50 (Target C) was 5.00 to 6.00 and the pIC50 (SMN2 mRNA) was greater than 7.00.

In the case of `Cc1c(O)c(-c2nc(-c3nnc[nH]3)c3cc(N4CCNCC4)ccc3n2)cc2cn(C)nc12` [Compound 522, 2,7-dimethyl-5-[6-(piperazin-1-yl)-4-(4H-1,2,4-triazol-3-yl)quinazolin-2-yl]indazol-6-ol; bis(trifluoroacetic acid)], the pIC50 (Target C) was less than 5.00 and the pIC50 (SMN2 mRNA) was greater than 7.00.

In the case of `Cc1c(O)c(-c2nc(C(N)=O)c3cc(N4CCNCC4)ccc3n2)cc2cn(C)nc12` [Compound 523, 2-(6-hydroxy-2,7-dimethylindazol-5-yl)-6-(piperazin-1-yl) quinazoline-4-carboxamide], the pIC50 (Target C) was 5.00 to 6.00 and the pIC50 (SMN2 mRNA) was greater than 7.00.

In the case of `Cc1c(O)c(-c2nc(C(=O)O)c3cc(N4CCNCC4)ccc3n2)cc2cn(C)nc12` [Compound 524, 2-(6-hydroxy-2,7-dimethylindazol-5-yl)-6-(piperazin-1-yl) quinazoline-4-carboxylic acid], the pIC50 (Target C) was less than 5.00 and the pIC50 (SMN2 mRNA) was 5.00 to 6.00.

`Cc1c(O)c(-c2ncc3cc(N4C[C@@H](C)N[C@@H](C)C4)ccc3n2)cc2cn(C)nc12` [Compound 525, 5-{6-[(3R,5S)-3,5-dimethylpiperazin-1-yl]quinazolin-2-yl}-2,7-dimethylindazol-6-ol] was tested, and the pIC50 (Target C) was 5.00 to 6.00 and the pIC50 (SMN2 mRNA) was greater than 7.00.
